From ChEMBL document CHEMBL5465560, “Selectivity Literature for EUbOPEN Chemogenomic Library” (2024)

Legend:
[1] = molecular target: Dual specificity protein kinase CLK1 (Homo sapiens, UniProt P49759)
[2] = molecular target: T1, Dual specificity tyrosine-phosphorylation-regulated kinase 3 (Homo sapiens, UniProt O43781)
T1 sequence (O43781 whole entry): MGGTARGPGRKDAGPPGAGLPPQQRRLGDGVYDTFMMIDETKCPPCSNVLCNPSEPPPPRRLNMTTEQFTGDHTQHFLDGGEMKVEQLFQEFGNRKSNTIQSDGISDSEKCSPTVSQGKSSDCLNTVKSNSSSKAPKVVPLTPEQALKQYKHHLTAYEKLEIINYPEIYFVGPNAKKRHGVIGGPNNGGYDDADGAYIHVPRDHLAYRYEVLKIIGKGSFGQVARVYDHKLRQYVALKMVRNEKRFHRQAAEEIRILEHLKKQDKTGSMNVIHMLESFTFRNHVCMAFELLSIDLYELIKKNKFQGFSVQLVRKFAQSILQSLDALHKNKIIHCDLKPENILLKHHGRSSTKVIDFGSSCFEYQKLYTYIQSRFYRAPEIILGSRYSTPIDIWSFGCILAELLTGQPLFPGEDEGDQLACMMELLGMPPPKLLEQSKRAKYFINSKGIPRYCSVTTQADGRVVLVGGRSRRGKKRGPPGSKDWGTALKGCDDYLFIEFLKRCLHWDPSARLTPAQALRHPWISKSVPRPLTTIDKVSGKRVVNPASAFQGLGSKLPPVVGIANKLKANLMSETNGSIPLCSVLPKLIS

[3] = molecular target: T2, Dual specificity tyrosine-phosphorylation-regulated kinase 2 (Homo sapiens, UniProt Q92630)
T2 sequence (Q92630 whole entry): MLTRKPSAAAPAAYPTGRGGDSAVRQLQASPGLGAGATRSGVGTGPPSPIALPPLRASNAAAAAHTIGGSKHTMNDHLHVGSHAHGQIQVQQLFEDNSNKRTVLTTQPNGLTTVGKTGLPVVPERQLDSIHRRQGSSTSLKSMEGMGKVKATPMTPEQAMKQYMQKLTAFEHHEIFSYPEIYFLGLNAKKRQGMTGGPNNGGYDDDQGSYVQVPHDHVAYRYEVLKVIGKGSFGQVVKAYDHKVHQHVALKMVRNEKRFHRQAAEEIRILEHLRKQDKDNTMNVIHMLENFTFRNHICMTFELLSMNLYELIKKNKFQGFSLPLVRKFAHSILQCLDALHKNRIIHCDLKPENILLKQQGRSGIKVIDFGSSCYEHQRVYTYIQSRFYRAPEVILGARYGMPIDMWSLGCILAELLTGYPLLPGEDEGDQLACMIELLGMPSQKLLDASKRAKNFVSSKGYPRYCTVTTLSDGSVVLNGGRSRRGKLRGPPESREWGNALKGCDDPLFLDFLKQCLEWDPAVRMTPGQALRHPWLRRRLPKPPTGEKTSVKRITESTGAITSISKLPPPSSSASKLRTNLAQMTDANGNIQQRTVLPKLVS

[4] = molecular target: Dual specificity protein kinase CLK3 (Homo sapiens, UniProt P49761)
[5] = molecular target: Dual specificity tyrosine-phosphorylation-regulated kinase 1B (Homo sapiens, UniProt Q9Y463)
[6] = molecular target: SRSF protein kinase 2 (Homo sapiens) (UniProt P78362)
[7] = molecular target: Dual specificity protein kinase CLK2 (Homo sapiens, UniProt P49760)
[8] = molecular target: Dual specificity tyrosine-phosphorylation-regulated kinase 1A (Homo sapiens, UniProt Q13627)
SRSF protein kinase 1 [9] = molecular target: T3, SRSF protein kinase 1 (Homo sapiens, UniProt Q96SB4); details: at 1 µM
[10] = molecular target: Dual specificity protein kinase CLK4 (Homo sapiens, UniProt Q9HAZ1)
SRSF protein kinase 1 [11] = molecular target: T3, SRSF protein kinase 1
[12] = molecular target: Bone morphogenetic protein receptor type-1B (Homo sapiens, UniProt O00238); assay: Selectivity interaction (NanoBRET assay (HEK293T cells)) EUB0001465a BMPR1B; assay type: cell-based, HEK-293T
TGF-beta receptor type-1 = TGF-beta receptor type-1 (Homo sapiens, UniProt P36897); assay: Selectivity interaction (NanoBRET assay (HEK293T cells)) EUB0001465a TGFBR1; assay type: cell-based, HEK-293T
[13] = molecular target: Bone morphogenetic protein receptor type-1A (Homo sapiens, UniProt P36894); assay: Selectivity interaction (NanoBRET assay (HEK293T cells)) EUB0001465a BMPR1A; assay type: cell-based, HEK-293T
Activin receptor type-1B = Activin receptor type-1B (Homo sapiens, UniProt P36896); assay: Selectivity interaction (NanoBRET assay (HEK293T cells)) EUB0001465a ACVR1B; assay type: cell-based, HEK-293T
[14] = molecular target: T4, Mitogen-activated protein kinase 14 (Homo sapiens, UniProt Q16539); assay: Selectivity interaction (Tracer competition assays (Reaction Biology)) EUB0001201a MAPK14
[15] = molecular target: T4, Mitogen-activated protein kinase 14; assay: Selectivity interaction (NanoBRET assay (using HEK293T cells)) EUB0001201a MAPK14; assay type: cell-based, HEK-293T
[16] = molecular target: T5, Casein kinase I isoform delta (Homo sapiens, UniProt P48730); assay: Selectivity interaction (Western Blot assay (autophosphorylation of CSNK1D in HEK293T-REx cells)) EUB0001205a CSNK1D; assay type: cell-based, T-REx-293
[17] = molecular target: T5, Casein kinase I isoform delta; assay: Selectivity interaction (Kinase panel (Reaction Biology)) EUB0001205a CSNK1D; details: at 1 µM
[18] = molecular target: Casein kinase I isoform alpha (Homo sapiens, UniProt P48729); assay: Selectivity interaction (Kinase panel (Reaction Biology)) EUB0001205a CSNK1A1; details: at 1 µM
[19] = molecular target: T6, Casein kinase I isoform epsilon (Homo sapiens, UniProt P49674); assay: Selectivity interaction (Kinase panel (Reaction Biology)) EUB0001205a CSNK1E; details: at 1 µM
[20] = molecular target: Casein kinase I isoform alpha-like (Homo sapiens, UniProt Q8N752); assay: Selectivity interaction (Tracer competition assays (Reaction Biology) ) EUB0001205a CSNK1A1L
[21] = molecular target: T6, Casein kinase I isoform epsilon; assay: Selectivity interaction (Western Blot assay (autophosphorylation of CSNK1E in HEK293T-REx cells)) EUB0001205a CSNK1E; assay type: cell-based, T-REx-293
[22] = molecular target: TRAF2 and NCK-interacting protein kinase (Homo sapiens) (UniProt Q9UKE5); assay: Selectivity interaction (Kinase panel (Reaction Biology)) EUB0001205a TNIK; details: at 1 µM
[23] = molecular target: T7, Tyrosine-protein kinase ZAP-70 (Homo sapiens) (UniProt P43403); assay: Selectivity interaction (Kinase panel (Reaction Biology)) EUB0001205a ZAP70; details: at 1 µM
T7 sequence (whole entry): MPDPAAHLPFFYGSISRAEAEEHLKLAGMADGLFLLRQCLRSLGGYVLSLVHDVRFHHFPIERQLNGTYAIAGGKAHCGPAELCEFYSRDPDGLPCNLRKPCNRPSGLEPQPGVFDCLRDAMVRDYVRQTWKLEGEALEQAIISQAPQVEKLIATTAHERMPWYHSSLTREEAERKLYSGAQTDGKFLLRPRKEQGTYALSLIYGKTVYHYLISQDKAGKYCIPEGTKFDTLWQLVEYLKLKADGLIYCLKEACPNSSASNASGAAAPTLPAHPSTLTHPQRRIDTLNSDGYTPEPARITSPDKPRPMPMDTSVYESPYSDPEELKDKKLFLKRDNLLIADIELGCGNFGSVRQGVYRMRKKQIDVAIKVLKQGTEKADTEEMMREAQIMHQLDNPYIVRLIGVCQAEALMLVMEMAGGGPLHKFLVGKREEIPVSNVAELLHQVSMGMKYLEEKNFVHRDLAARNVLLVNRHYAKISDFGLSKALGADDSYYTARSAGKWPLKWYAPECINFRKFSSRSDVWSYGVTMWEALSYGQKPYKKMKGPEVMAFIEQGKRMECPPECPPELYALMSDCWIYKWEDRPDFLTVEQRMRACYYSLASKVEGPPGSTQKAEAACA

[24] = molecular target: T8, Chromatin remodeling regulator CECR2 (Homo sapiens, UniProt Q9BXF3); assay: Selectivity interaction (BROMOscan) EUB0001074a CECR2
[25] = molecular target: ATPase family AAA domain-containing protein 2B (Homo sapiens, UniProt Q9ULI0); assay: Selectivity interaction (BROMOscan) EUB0001074a ATAD2B
[26] = molecular target: SWI/SNF-related matrix-associated actin-dependent regulator of chromatin subfamily A member 2 (Homo sapiens, UniProt P51531); assay: Selectivity interaction (BROMOscan) EUB0001074a SMARCA2
[27] = molecular target: Bromodomain adjacent to zinc finger domain protein 2A (Homo sapiens, UniProt Q9UIF9); assay: Selectivity interaction (BROMOscan) EUB0001074a BAZ2A
[28] = molecular target: Histone acetyltransferase KAT2B (Homo sapiens, UniProt Q92831); assay: Selectivity interaction (BROMOscan) EUB0001074a KAT2B
[29] = molecular target: T9, Bromodomain-containing protein 4 (Homo sapiens, UniProt O60885); assay: Selectivity interaction (AlphaScreen) EUB0001074a BRD4
[30] = molecular target: ATPase family AAA domain-containing protein 2 (Homo sapiens, UniProt Q6PL18); assay: Selectivity interaction (BROMOscan) EUB0001074a ATAD2
[31] = molecular target: E3 ubiquitin-protein ligase TRIM33 (Homo sapiens, UniProt Q9UPN9); assay: Selectivity interaction (BROMOscan) EUB0001074a TRIM33
[32] = molecular target: TATA box-binding protein-associated factor RNA polymerase I subunit A (Homo sapiens, UniProt Q15573); assay: Selectivity interaction (AlphaScreen) EUB0001074a TAF1A
Peregrin = Peregrin (Homo sapiens, UniProt P55201); assay: Selectivity interaction (AlphaScreen) EUB0001074a BRPF1
[33] = molecular target: Bromodomain-containing protein 7 (Homo sapiens, UniProt Q9NPI1); assay: Selectivity interaction (BROMOscan) EUB0001074a BRD7
[34] = molecular target: T10, Bromodomain-containing protein 9 (Homo sapiens, UniProt Q9H8M2); assay: Selectivity interaction (AlphaScreen) EUB0001074a BRD9
T10 sequence (Q9H8M2 whole entry): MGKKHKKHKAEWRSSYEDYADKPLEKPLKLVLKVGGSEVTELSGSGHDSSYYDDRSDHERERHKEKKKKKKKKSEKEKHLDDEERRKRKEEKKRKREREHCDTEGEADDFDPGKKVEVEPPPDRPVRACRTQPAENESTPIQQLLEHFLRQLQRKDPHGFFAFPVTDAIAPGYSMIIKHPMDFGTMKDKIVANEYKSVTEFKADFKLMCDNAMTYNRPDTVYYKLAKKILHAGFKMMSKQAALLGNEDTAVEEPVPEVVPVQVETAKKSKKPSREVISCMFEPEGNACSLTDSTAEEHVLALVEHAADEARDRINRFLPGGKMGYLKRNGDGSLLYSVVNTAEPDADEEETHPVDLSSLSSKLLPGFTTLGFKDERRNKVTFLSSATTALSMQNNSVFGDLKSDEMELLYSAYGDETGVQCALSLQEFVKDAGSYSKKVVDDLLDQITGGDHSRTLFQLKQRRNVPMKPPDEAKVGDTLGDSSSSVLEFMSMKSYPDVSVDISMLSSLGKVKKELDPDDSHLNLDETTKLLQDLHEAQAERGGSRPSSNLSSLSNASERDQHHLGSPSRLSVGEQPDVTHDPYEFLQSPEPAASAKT

CREB-binding protein = CREB-binding protein (Homo sapiens, UniProt Q92793); assay: Selectivity interaction (BROMOscan) EUB0001074a CREBBP
[35] = molecular target: T8, Chromatin remodeling regulator CECR2; assay: Selectivity interaction (AlphaScreen) EUB0001074a CECR2
[36] = molecular target: T10, Bromodomain-containing protein 9; assay: Selectivity interaction (BROMOscan) EUB0001074a BRD9
[37] = molecular target: T9, Bromodomain-containing protein 4; assay: Selectivity interaction (BROMOscan) EUB0001074a BRD4
[38] = molecular target: Nucleosome-remodeling factor subunit BPTF (Homo sapiens, UniProt Q12830); assay: Selectivity interaction (AlphaScreen) EUB0001074a BPTF

T3 sequence (Q96SB4 whole entry): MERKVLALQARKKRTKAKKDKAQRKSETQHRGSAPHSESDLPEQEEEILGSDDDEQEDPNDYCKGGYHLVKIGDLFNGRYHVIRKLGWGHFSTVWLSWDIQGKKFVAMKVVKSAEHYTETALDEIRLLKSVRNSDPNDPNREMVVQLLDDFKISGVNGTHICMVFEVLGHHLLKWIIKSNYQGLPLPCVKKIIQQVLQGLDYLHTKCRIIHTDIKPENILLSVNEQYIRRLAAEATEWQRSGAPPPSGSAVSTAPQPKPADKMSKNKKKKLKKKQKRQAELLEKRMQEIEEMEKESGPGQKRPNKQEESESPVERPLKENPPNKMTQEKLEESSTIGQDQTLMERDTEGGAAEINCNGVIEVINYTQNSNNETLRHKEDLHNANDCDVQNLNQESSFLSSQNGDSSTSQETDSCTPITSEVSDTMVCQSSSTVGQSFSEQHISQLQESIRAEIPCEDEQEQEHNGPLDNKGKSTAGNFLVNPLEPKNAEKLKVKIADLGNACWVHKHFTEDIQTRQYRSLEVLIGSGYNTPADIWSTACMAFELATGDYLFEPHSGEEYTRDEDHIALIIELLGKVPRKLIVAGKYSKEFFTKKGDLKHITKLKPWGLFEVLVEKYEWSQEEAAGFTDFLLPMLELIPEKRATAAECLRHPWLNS
T4 sequence (Q16539 whole entry): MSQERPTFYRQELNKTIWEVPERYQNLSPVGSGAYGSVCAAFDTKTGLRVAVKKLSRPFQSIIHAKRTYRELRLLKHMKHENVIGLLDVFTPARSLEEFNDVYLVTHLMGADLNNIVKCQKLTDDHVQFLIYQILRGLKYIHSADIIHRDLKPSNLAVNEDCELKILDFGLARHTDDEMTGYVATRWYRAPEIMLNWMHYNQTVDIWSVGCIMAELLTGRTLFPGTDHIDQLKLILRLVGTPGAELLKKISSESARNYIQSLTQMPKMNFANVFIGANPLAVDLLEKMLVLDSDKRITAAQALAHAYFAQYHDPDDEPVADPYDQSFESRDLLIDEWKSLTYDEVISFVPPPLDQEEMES
T8 sequence (Q9BXF3 whole entry, the tested form may be a part): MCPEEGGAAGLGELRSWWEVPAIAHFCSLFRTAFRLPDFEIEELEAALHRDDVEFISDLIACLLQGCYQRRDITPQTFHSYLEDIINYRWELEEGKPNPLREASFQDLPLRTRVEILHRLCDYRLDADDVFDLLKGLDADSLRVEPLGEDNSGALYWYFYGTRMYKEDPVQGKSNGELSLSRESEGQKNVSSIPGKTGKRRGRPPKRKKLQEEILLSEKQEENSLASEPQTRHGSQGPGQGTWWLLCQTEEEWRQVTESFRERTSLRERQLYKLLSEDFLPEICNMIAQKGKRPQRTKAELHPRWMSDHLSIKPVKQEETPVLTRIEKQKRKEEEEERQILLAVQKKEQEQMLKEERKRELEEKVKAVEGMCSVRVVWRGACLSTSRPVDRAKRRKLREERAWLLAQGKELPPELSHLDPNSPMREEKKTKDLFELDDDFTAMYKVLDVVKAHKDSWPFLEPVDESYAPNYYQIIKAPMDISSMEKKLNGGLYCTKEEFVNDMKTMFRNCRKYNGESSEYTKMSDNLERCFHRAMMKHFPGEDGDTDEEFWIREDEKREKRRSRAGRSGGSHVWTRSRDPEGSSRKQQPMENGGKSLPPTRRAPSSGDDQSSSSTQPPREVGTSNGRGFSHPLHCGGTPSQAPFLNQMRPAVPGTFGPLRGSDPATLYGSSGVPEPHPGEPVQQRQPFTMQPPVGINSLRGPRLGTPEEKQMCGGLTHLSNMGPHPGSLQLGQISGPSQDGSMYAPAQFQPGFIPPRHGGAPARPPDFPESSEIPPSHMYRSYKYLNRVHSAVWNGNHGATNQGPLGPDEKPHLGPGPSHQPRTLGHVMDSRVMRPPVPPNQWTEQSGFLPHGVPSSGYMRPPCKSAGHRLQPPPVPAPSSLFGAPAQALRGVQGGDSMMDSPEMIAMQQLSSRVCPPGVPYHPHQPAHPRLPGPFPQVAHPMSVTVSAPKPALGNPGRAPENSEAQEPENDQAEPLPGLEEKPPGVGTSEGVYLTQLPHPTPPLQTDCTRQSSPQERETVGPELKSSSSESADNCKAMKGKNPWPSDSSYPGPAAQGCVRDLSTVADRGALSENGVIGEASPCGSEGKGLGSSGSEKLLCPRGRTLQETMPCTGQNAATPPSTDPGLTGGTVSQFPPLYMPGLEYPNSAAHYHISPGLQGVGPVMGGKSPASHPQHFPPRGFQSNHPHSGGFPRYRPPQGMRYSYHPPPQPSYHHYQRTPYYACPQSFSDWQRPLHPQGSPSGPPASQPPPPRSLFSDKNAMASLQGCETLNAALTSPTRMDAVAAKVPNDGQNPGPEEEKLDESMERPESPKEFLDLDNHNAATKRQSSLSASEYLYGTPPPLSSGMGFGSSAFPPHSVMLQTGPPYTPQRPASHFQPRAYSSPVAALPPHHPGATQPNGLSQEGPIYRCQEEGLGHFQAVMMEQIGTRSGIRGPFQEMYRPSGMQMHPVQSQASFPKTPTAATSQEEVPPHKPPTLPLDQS
ATPase family AAA domain-containing protein 2B, sequence (Q9ULI0 whole entry, the tested form may be a part): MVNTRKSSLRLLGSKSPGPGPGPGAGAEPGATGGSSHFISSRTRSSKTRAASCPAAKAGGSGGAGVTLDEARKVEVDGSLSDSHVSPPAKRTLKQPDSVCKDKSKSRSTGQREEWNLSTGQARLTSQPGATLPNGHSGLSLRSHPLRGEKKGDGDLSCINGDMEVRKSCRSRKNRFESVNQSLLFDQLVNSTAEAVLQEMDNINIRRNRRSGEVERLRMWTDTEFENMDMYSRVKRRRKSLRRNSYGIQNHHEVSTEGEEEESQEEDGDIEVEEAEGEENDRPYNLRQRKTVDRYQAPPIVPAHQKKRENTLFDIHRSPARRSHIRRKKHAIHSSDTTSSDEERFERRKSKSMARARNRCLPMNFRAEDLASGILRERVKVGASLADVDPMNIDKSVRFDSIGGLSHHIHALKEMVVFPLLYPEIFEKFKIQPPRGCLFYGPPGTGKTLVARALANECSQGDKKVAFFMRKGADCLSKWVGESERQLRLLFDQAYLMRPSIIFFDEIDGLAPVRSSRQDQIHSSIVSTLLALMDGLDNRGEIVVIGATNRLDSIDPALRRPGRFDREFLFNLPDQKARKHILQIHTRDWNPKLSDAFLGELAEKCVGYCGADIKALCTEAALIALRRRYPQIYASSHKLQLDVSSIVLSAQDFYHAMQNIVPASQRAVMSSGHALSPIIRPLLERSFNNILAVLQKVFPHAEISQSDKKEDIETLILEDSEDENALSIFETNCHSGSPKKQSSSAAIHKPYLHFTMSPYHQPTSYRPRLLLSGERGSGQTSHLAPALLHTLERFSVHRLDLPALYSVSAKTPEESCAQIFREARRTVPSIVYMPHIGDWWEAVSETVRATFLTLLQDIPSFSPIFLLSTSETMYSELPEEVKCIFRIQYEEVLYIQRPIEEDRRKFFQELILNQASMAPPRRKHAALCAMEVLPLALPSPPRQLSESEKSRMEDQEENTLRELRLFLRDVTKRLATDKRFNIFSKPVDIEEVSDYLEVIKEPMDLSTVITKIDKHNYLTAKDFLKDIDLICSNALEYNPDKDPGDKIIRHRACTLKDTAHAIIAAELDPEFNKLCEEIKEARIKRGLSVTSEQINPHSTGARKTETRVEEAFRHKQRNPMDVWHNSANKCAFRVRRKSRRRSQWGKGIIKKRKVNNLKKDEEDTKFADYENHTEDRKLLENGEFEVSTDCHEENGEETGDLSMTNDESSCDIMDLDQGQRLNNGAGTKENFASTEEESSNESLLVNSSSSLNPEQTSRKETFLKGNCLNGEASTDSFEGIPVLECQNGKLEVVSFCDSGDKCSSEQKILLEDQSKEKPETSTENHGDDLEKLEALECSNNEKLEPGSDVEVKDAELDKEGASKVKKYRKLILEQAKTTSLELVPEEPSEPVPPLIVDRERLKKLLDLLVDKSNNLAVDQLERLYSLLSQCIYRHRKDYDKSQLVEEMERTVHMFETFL
SRSF protein kinase 2 (Homo sapiens), sequence (P78362 whole entry, looked up): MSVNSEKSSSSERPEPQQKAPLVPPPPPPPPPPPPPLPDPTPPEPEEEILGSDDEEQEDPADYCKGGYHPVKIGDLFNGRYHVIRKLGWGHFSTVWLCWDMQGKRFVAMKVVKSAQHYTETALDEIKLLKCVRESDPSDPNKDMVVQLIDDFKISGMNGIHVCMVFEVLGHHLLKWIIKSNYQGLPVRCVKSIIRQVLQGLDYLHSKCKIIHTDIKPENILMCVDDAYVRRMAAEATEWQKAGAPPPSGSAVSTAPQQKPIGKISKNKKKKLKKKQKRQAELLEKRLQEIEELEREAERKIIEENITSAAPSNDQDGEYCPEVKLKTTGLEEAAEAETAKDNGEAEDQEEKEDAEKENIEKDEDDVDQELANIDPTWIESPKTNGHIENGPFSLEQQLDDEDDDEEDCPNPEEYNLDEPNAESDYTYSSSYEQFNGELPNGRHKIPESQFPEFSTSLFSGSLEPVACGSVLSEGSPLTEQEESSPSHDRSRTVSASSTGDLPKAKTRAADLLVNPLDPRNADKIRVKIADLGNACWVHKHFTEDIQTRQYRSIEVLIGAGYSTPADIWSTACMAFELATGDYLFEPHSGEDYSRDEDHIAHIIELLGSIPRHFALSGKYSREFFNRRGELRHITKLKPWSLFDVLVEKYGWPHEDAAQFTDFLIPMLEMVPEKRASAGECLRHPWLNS
TATA box-binding protein-associated factor RNA polymerase I subunit A, sequence (Q15573 whole entry): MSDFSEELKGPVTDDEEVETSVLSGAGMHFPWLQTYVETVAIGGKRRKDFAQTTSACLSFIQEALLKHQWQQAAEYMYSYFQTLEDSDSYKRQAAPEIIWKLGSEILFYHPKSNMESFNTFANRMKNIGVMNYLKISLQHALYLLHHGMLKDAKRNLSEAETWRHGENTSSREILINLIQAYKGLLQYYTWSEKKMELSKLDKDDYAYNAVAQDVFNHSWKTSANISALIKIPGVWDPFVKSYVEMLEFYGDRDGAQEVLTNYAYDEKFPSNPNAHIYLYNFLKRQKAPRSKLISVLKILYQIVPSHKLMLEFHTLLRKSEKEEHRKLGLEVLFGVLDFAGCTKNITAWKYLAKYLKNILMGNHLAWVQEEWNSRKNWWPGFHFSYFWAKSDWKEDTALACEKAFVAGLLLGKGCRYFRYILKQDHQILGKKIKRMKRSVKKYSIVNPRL

For `CN(c1ncccc1CNc1ccnc(-c2nc3c(F)c(Cl)ccc3[nH]2)n1)S(C)(=O)=O`, the IC50 [1] was over 10 µM, the IC50 [2] was over 10 µM and the IC50 [3] was over 10 µM. For the same compound, the IC50 [4] was over 10 µM, the IC50 [5] was over 10 µM and the dTM [6] was 4 K. For the same compound, the IC50 [7] was over 10 µM, the IC50 [8] was over 10 µM and the % of control (SRSF protein kinase 1 [9]) was 8.76%. For the same compound, the IC50 [10] was over 10 µM and the dTM (SRSF protein kinase 1 [11]) was 9.1 K.

`COc1cc(-c2cncc(-c3ccc(N4CCN(C(C)C)CC4)cc3)c2C)cc(F)c1C(=O)N1CCCC1` was tested, and the IC50 [12] was over 10 nM, the IC50 (TGF-beta receptor type-1) was over 10 nM and the IC50 [13] was over 10 nM. It also gave an IC50 (Activin receptor type-1B) of over 10 nM.

With `CCc1ccc(-c2ncn(CC3(F)CCN(C)CC3)c2-c2ccnc3[nH]ccc23)nc1` the IC50 [14] was over 3 µM and the IC50 [15] was 9.9 µM.

With `CN1CCC(F)(Cn2cnc(-c3ccc(F)cn3)c2-c2ccnc3[nH]ccc23)CC1` the IC50 [16] was 500 nM, the % of inhibition [17] was -6% and the % of inhibition [18] was 6%. The % of inhibition [19] was 0%, the IC50 [20] was 520 nM and the IC50 [21] was 12.4 µM. It also gave a % of inhibition [22] of 43% and a % of inhibition [23] of 71%.

`CCc1cc2cc(NS(=O)(=O)c3ccc(C#N)cc3)ccc2n(CC)c1=O` was tested, and the IC50 [24] was over 100 µM, the IC50 [25] was over 100 µM and the IC50 [26] was over 77 µM. It also gave an IC50 [27] of over 100 µM, an IC50 [28] of over 100 µM and an IC50 [29] of over 200 µM. The IC50 [30] was over 100 µM, the IC50 [31] was over 100 µM and the IC50 [32] was over 200 µM. The IC50 (Peregrin) was over 200 µM, the IC50 [33] was over 100 µM and the IC50 [34] was over 200 µM. It also gave an IC50 (CREB-binding protein) of over 100 µM, an IC50 [35] of over 200 µM and an IC50 [36] of over 100 µM. It also gave an IC50 [37] of over 100 µM and an IC50 [38] of over 200 µM.
